For test [1], the system named is islets from wild-type pigs. In words: Insulin release of wild-type pig islets with exogenous GLP-1. Type of test: cell-based. The protocol:
After isolation from wild-type pigs, islets were incubated overnight at 37° C., 5% CO2/95% O2 in RMPI medium containing 10% heat-inactivated FCS, 100 IU/ml penicillin, 100 μg/ml streptomycin and 5 mmol/l glucose. The function of islets in different culture conditions was assessed by 2 or 24 hr incubation of 200 islets in 1.5 ml buffer containing (i) 1 mmol/l glucose, (ii) 15 mmol/l glucose, (iii) 15 mmol/l glucose+[…] Forskolin (fsk) (Calbiochem-Behring, San Diego, Calif.) (added from a 1 mmol/l stock solution in DMSO), (iv) 15 mmol/l glucose+1 μmol/l fsk, (v) 15 mmol/l glucose+5 nM GLP-1 (Sigma Aldrich), (vi) 15 mmol/l glucose+50 nM GLP-1, (vii) 15 mmol/l glucose+500 nM GLP-1, (viii) 15 mmol/l glucose+1 μmol/l fsk+50 nM GLP-1. Three replicates per concentration were performed. Media were thereafter recovered for insulin quantification and islets were transferred in acid-ethanol for hormones extraction and quantification by radioimmuno-assay (Human insulin RIA kit, Millipore, Billerica, Mass., USA).

In the next test the test system is adult pig islets. To be noted: cited from earlier work.
The subject of a further test is isolated pig islets. In words: In vitro islet functionality (24 hr incubation at G5, G15, G15+Fsk; insulin/glucagon RIA). Type of test: cell-based. The protocol: The following steps were performed with the samples kept on ice. […] The samples were then sonicated 4×20 seconds (Sonifier B 12 [Branson Sonic Power Company, Danbury, Conn., USA]) and centrifugated 10 minutes at 4° C. at 1500 rpm. The first supernatant formed was removed and kept at −20° C. […] The samples were then kept at −20° C. overnight. After a step of centrifugation 10 minutes at 4° C. at 1500 rpm, the second supernatant was removed and kept at −20° C. […] The three supernatants were then pooled and constituted the pancreas extract. Human insulin specific RIA KIT and Glucagon RIA KIT (Millipore, Billerica, Mass., USA) were used for the determination of the hormonal content in human/pig pancreatic extractions as well as in isolated islets (see below). The content of insulin and glucagon in the extracts was performed following the instructions of the manufacturer. […] After incubation overnight at room temperature, 1 mL of precipitating reagent were added, followed by incubation 20 minutes at 4° C. The samples were then centrifuged 20 minutes at 2000-3000×g at 4° C.
Three replicates per concentration were performed. Media were thereafter recovered for insulin and glucagon quantification and islets were transferred in acid-ethanol for hormones extraction and quantification by radioimmuno-assay (see above).

Where [2] appears, read: 15 mmol/l glucose + 1 μmol/l Fsk, native and treated pig islets.

Consider “GLP-1: exogenous GLP-1 (Sigma Aldrich) added to wild-type pig islets”, for which, in test [1] (500 nM GLP-1, glucose 15 mM, 24 hrs incubation), the “increase of insulin release” value worked out at 12%. Further, the “stimulation index (ratio of insulin release at glucose 15 mM vs. 1 mM)” value in test [1] (GLP-1 at 500 nM) was “significant increase”. In addition, the “increase of insulin release in comparison to glucose 15 mM alone” value in test [1] (GLP-1 at 50-500 nM, glucose 15 mM, 2 hrs incubation) is reported as 10%.

“glucagon: peptide hormone added to adult pig islets in cited literature studies”: the “increase of stimulation index” value in the test on adult pig islets (acute exposure to 1 or 10 μM glucagon) is on record as 30%. Also, in the test with adult pig islets (islets cultured in the presence of 10 μM glucagon), the “basal insulin release in comparison with control situation” value is listed as 2 fold.

Take `C=C[C@@]1(C)CC(=O)[C@]2(O)[C@@]3(C)[C@@H](O)CCC(C)(C)[C@@H]3[C@H](O)[C@H](OC(C)=O)[C@@]2(C)O1` [Fsk, Forskolin]: the “increase in insulin secretion after G15+Fsk in comparison with G5 and G15” value with isolated pig islets (1 μmol/l Fsk, native and treated islets) is on record as 2 to 4 fold. For the same molecule, in the test with isolated pig islets (setting [2]), the “effect on glucagon secretion or content” value is given as “No effect” and the “effect on insulin content” value is given as “No effect”.

The values are drawn from patent US20130336940A1, “MODIFIED PIG ISLETS FOR DIABETES TREATMENT” (UNIVERSITE CATHOLIQUE DE LOUVAIN, priority 2011, published 2013).
